# Test results reported in PubChem BioAssay AID1648 (Sanford-Burnham Center for Chemical Genomics, 2009).
# Calls of active or inactive are those of the source. The rule behind the calls is not given here.
# Molecular target: Serine/threonine-protein kinase mTOR (Homo sapiens) (UniProt P42345)
# Experiment: binders of mTOR FRB domain, biophysical, NMR (AID 1648)
# Details: NMR binding to FRB domain, chemical shift
# Serine/threonine-protein kinase mTOR (Homo sapiens), sequence (P42345 2015-2114): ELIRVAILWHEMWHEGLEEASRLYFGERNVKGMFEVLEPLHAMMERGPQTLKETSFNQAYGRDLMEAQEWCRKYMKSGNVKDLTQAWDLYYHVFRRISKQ
row,Compound,Kd
1,CC(=O)O[C@@H]1CC2C(C)(C)[C@@H](O)CC[C@]2(C)C2CC[C@@]3(C)[C@H](c4ccoc4)OC(=O)[C@H]4O[C@]43[C@@]21C (stereo not given in full),> 4 mM (inactive)
2,COc1ccc2c(c1)C(NC(C)=O)C(=O)N2C (stereo not given),> 4 mM (inactive)
3,COc1ccc(NC(=O)N2CCCCC2)cc1,> 4 mM (inactive)
4,Cc1nnsc1C(=O)O,> 4 mM (inactive)
5,CCC(=O)NC(=S)Nc1ccc(O)cc1,> 4 mM (inactive)
6,COc1ccc(C)cc1S(N)(=O)=O,> 4 mM (inactive)
7,COC(=O)c1c(OC)cc2c(c1C)Oc1c(Cl)c(O)c(Cl)c(C)c1C(=O)O2,> 4 mM (inactive)
8,Nc1nncn1C(=O)c1ccccc1Cl,> 4 mM (inactive)
9,OCC1CCCN2CCCCC12 (stereo not given),> 4 mM (inactive)
10,Cc1ccc(NC(=O)CC2NCCNC2=O)c(C)c1 (stereo not given),> 4 mM (inactive)
11,CSc1nc(-c2ccccc2)ccc1C(N)=O,> 4 mM (inactive)
12,CC(C)c1ccc2c(c1)CCC1C(C)(C(N)=O)CCCC21C (stereo not given),> 4 mM (inactive)
13,Cc1c(-c2ccc(F)cc2)[n+](=O)c2c(n1[O-])CCC2,> 4 mM (inactive)
14,CC(C)[C@@H]1CC[C@@H](C)C[C@H]1OC(=O)c1ccccc1,> 4 mM (inactive)
15,OC12C=CC(CC1)CC2,> 4 mM (inactive)
16,CSc1nnc2[nH]c(=O)cc(N)n12,> 4 mM (inactive)
17,Cc1cc(O)c2c(c1)C(=O)c1cccc(O)c1C2=O,> 4 mM (inactive)
18,Cc1csc(SCC(=O)N2CCCC2)n1,> 4 mM (inactive)
19,O=C(NCc1cccnc1)c1ccccn1,> 4 mM (inactive)
20,CCOCC(=O)NCc1n[nH]c(=O)c2ccccc12,> 4 mM (inactive)
21,Cc1noc(C)c1C(=O)N1CCC(Cc2ccccc2)CC1,> 4 mM (inactive)
22,O=S1(=O)C=CC(N2CCCCC2)C1 (stereo not given),> 4 mM (inactive)
23,CC(=O)OC1CCC2(C)C(=CC=C3C2CCC2(C)C3CCC2C(C)/C=C/C(C)C(C)C)C1(C)C (stereo not given),> 4 mM (inactive)
24,CCC1=Nc2ccccc2-c2nnc(SC)nc2O1,> 4 mM (inactive)

row,Compound,Kd
1,Cc1cc(=O)n2[nH]c(N)nc2n1,> 4 mM (inactive)
2,CN1CCC2(CC1)CC1CC3C=CC1(CN2)O3 (stereo not given),> 4 mM (inactive)
3,C[C@@H]1CC[C@@]2(NC1)O[C@H]1C[C@H]3C4CC=C5C[C@@H](O)CC[C@]5(C)C4CC[C@]3(C)C1[C@@H]2C (stereo not given in full),> 4 mM (inactive)
4,O=C(O)C12CC3CC(CC(O)(C3)C1)C2,> 4 mM (inactive)
5,CCC[C@H]1CC2=C(C[C@@H](CC)CC3=C1C(=O)OC3=O)C(=O)OC2=O,> 4 mM (inactive)
6,N#Cc1cnc(N2CCCCC2)nc1N,> 4 mM (inactive)
7,NC1=NC(=O)/C(=C\c2cccnc2)S1,> 4 mM (inactive)
8,Cc1cc(C(=O)N2CCN(c3ncccn3)CC2)cs1,> 4 mM (inactive)
9,ON=c1ccc2nc3ccccc3nc2cc1,> 4 mM (inactive)
10,O=C(O)CCCCCCCCCCCCC1C=CCC1 (stereo not given),> 4 mM (inactive)
11,O=C1NC(=O)C2C3C=CC(O3)C12 (stereo not given),> 4 mM (inactive)
12,Cn1c(O)c(C2=NC(=S)NC2=O)c2ccccc21,> 4 mM (inactive)
13,O=C(/C=C/c1ccccc1)c1ccc(O)cc1,> 4 mM (inactive)
14,OCc1ccc(-c2cccs2)s1,> 4 mM (inactive)
15,O=C1NC(=S)NC(=O)C1=Cc1ccccc1O,> 4 mM (inactive)
16,COc1cc(S(=O)(=O)Nc2cccnc2)ccc1F,> 4 mM (inactive)
17,CC(C)=NNC(=O)c1ccccc1,> 4 mM (inactive)
18,Cc1cc(C(=O)N2CCOCC2)c(C)o1,> 4 mM (inactive)
19,CC1=NN(c2ccc(N)cc2)C(=O)C1,> 4 mM (inactive)
20,O=C(O)CCCNC(=O)c1ccccc1C(=O)O,> 4 mM (inactive)
21,Cc1cc(C)c2ccc[n+]([O-])c2c1O,> 4 mM (inactive)
22,c1ccc(CCc2nc(-c3ccncc3)no2)cc1,> 4 mM (inactive)
23,O=c1c(O)cccc2cc(O)c(O)c(O)c12,> 4 mM (inactive)
24,O=P(c1ccccc1)(c1ccccc1)C1CCOCC1,> 4 mM (inactive)

row,Compound,Kd
1,OCC1CN(Cc2ccccc2)CCO1 (stereo not given),> 4 mM (inactive)
2,CC(C)=CCC[C@](C)(O)C1CC=C(C)CC1 (stereo not given in full),> 4 mM (inactive)
3,COc1ccc2c(c1)OC[C@@H](Cc1ccc(OC)c(OC)c1)[C@@H]2O,> 4 mM (inactive)
4,Cc1c(CO)cnn1-c1ccccc1,> 4 mM (inactive)
5,Cc1nc2ccccc2c(=O)n1N1C(=O)CCCC1=O,> 4 mM (inactive)
6,Cc1cc(C)nc(/N=C(/N)Nc2cccc(F)c2)n1,> 4 mM (inactive)
7,O=C(NC1CCS(=O)(=O)C1)c1ccccc1 (stereo not given),> 4 mM (inactive)
8,CC(C)(C)c1cc(N)n[nH]1,> 4 mM (inactive)
9,Cc1nnc(SCc2ccc(F)cc2)s1,> 4 mM (inactive)
10,Nc1ccc(N2CCOCC2)cc1,> 4 mM (inactive)
11,COC(=O)c1ccc(Cl)c(NC(C)=O)c1,> 4 mM (inactive)
12,O=C(O)CNc1ncnc2nc[nH]c12,> 4 mM (inactive)
13,C[C@]12CCC3C(CC[C@H]4C[C@@H](O)CC[C@]34C)C1CCC2=O (stereo not given in full),> 4 mM (inactive)
14,O=C(O)c1ncoc1-c1ccccc1,> 4 mM (inactive)
15,COC(=O)c1oc2ccc(Cl)cc2c1NC(C)=O,> 4 mM (inactive)
16,OCc1cc(F)cc2c1OCOC2,> 4 mM (inactive)
17,NC(=O)Cc1nc(-c2ccccc2)cs1,> 4 mM (inactive)
18,O=C(O)c1scc2c1CCCC2,> 4 mM (inactive)
19,C=C[C@](C)(O)CCC=C(C)C,> 4 mM (inactive)
20,O=C1Nc2ccc(S(=O)(=O)NCCO)c3cccc1c23,> 4 mM (inactive)
21,COCC(=O)NC1CC(C)(C)NC(C)(C)C1,> 4 mM (inactive)
22,CC(=O)Oc1ccc(O)cc1,> 4 mM (inactive)
23,Cc1cc(C(=O)N2CCC3(CC2)OCCO3)cs1,> 4 mM (inactive)
24,CC(C)=CCCC1(C)C=Cc2c(O)c3c(c(CC=C(C)C)c2O1)OC12C(=CCCC1C(C)(C)O[C@@]2(C/C=C(\C)C(=O)O)C(=O)O)C3=O (stereo not given in full),> 4 mM (inactive)

row,Compound,Kd
1,CCOc1ccc(Cl)cc1S(=O)(=O)N1CCCC1,> 4 mM (inactive)
2,Oc1cccc2[nH]ccc12,> 4 mM (inactive)
3,O=C(c1cccc(-n2cnnn2)c1)N1CCOCC1,> 4 mM (inactive)
4,Cn1cnc2c(=S)[nH]c(=O)n(Cc3ccccc3)c21,> 4 mM (inactive)
5,COC(=O)C[C@@H]1C2(C)C(=O)[C@@H](CC3C2CC[C@]2(C)C3CC(=O)O[C@H]2c2ccoc2)[C@H](OC(C)=O)C1(C)C (stereo not given in full),> 4 mM (inactive)
6,O=C(c1ccncc1)c1ccc(Br)cc1,> 4 mM (inactive)
7,COC(=O)CC1SC(=O)NC1=O (stereo not given),> 4 mM (inactive)
8,N#CCSc1nnc2ccc3ccccc3n12,> 4 mM (inactive)
9,O=C(Nc1cnccn1)c1cccc(C(F)(F)F)c1,> 4 mM (inactive)
10,CC(C)Nc1nc2n(c(=O)n1)CCN2C(C)C,> 4 mM (inactive)
11,O=C1CCC(C(=O)NCc2cccnc2)N1 (stereo not given),> 4 mM (inactive)
12,CN1CCN(c2ccc(N)cc2)CC1,> 4 mM (inactive)
13,Cc1nc(-c2cccc(C(=O)O)c2)cs1,> 4 mM (inactive)
14,Oc1ccc(-n2ccnc2)cc1,> 4 mM (inactive)
15,Cn1c(=O)n(CC(=O)N2CCOCC2)c2ccccc21,> 4 mM (inactive)
16,OC[C@H]1O[C@@](CO)(O[C@@H]2O[C@H](CO)[C@@H](O)[C@H](O)[C@H]2O)[C@@H](O[C@@H]2O[C@H](CO)[C@@H](O)[C@H](O)[C@H]2O)[C@@H]1O,> 4 mM (inactive)
17,O=c1[nH]cc(NCc2ccccc2)c(=O)[nH]1,> 4 mM (inactive)
18,NCc1ccc2c(c1)CCO2,> 4 mM (inactive)
19,O=C(NCN1CCOCC1)c1cccnc1,> 4 mM (inactive)
20,Cc1ccccc1N1CCN(C(=O)C2CCCCC2)CC1,> 4 mM (inactive)
21,COc1ccc(C)cc1-n1c(-c2ccncc2)n[nH]c1=S,> 4 mM (inactive)
22,Nc1nnc(SCc2cccnc2)s1,> 4 mM (inactive)
23,Cc1ccccc1NC(=O)CC1NCCNC1=O (stereo not given),> 4 mM (inactive)
24,O=C(Nc1cccc(Cl)c1)c1ccncc1,> 4 mM (inactive)

row,Compound,Kd
1,Cc1ccc(SCCN2C(=O)NC(C)(C)C2=O)cc1,> 4 mM (inactive)
2,Cc1n[nH]c(=S)n(/N=C/c2cccs2)c1=O,> 4 mM (inactive)
3,Nc1ccc(N2CCOCC2)c(Cl)c1,> 4 mM (inactive)
4,Cc1ccc(N)nc1,> 4 mM (inactive)
5,Cc1ccc(C(=O)Nc2c[nH]c(=O)[nH]c2=O)cc1,> 4 mM (inactive)
6,Cn1c(SCC(=O)NCCO)nc2ccccc2c1=O,> 4 mM (inactive)
7,O=C(O)c1ccc2[nH]c3c(c2c1)CSCC3,> 4 mM (inactive)
8,OC1CCCN(Cc2ccccc2)C1 (stereo not given),> 4 mM (inactive)
9,O=C(Nc1cccnc1)c1c(F)c(F)c(F)c(F)c1F,> 4 mM (inactive)
10,CSc1ccccc1NC(=O)c1c(C)noc1C,> 4 mM (inactive)
11,COc1cc(C)nc(N(CCO)CCO)n1,> 4 mM (inactive)
12,c1coc(CNc2ncnc3nc[nH]c23)c1,> 4 mM (inactive)
13,NC(=O)NC1C=CS(=O)(=O)C1 (stereo not given),> 4 mM (inactive)
14,OCC(O)C(O)C(O)CO (stereo not given),> 4 mM (inactive)
15,O=C(Nc1ccc2c(c1)OCO2)c1cnn2cccnc12,> 4 mM (inactive)
16,COc1ccc([C@@H]2CC(=O)c3c(O)cc(O)cc3O2)cc1O,> 4 mM (inactive)
17,NCc1nc2ccccc2s1,> 4 mM (inactive)
18,Nc1cccc(-c2cnco2)c1,> 4 mM (inactive)
19,O=c1[nH]oc2ccccc12,> 4 mM (inactive)
20,Nc1nc2n(c1C(=O)c1ccccc1)CCC2,> 4 mM (inactive)
21,CC(=O)OCC(OC(C)=O)C(OC(C)=O)C(OC(C)=O)C(OC(C)=O)C(COC(C)=O)OC(C)=O (stereo not given),> 4 mM (inactive)
22,NC(=O)C1CCN(Cc2ccccc2)CC1,> 4 mM (inactive)
23,Cn1c(=O)c2c(n(C)c1=O)=NC1(CCCCC1)N=2,> 4 mM (inactive)
24,Cn1ccc(NC(=S)Nc2cccc([N+](=O)[O-])c2)n1,> 4 mM (inactive)
